In patent US20250360167A1 (Keryx Biopharmaceuticals, Inc., priority 2013, published 2025):

Tests used:
serum phosphorus = assay: Phase 3 trial in ESRD patients on dialysis (Example 1), 52-week Safety Assessment Period: serum phosphorus vs active control; type: in vivo, human; conditions: for Mean Serum Phosphorus / Mean Serum Phosphorus, % Change from Baseline / Mean Serum Phosphorus, Change from Baseline: Table B; for Serum Phosphorus, Mean / Serum Phosphorus, Median: Safety Assessment Period; for Serum Phosphorus, Mean / Serum Phosphorus, Median / Serum Phosphorus, LS Mean / Serum Phosphorus, Change from Baseline, Mean / Serum Phosphorus, Change from Baseline, Median / Serum Phosphorus, Treatment Differences, LS Mean (KRX-0502) − LS Mean (control): Table 13; for Serum Phosphorus, Change from Baseline, Mean / Serum Phosphorus, Change from Baseline, Median: Day 0 baseline
Protocol: This trial was a three-period, multicenter, safety and efficacy clinical trial.
Period 2 (Safety Assessment Period). […] Patients were followed on their randomized assignment for safety assessments over 52 weeks.
For patients randomized to the active-control group, the starting dose of phosphate binder was the last dose that was administered immediately prior to the start of the Washout Period (if the patient remained on the same phosphate binder) or at the discretion of the PI, guided by the package insert, if the patient changed binders. However, for patients whose previous dose of phosphate binder exceeded 12 pills/day, if randomized to the active-control group, their starting dose of active-control drug was at the discretion of the PI, but will not exceed 12 pills/day. Calcium acetate 667 mg capsules and sevelamer carbonate 800 mg tablets were used and were supplied by Keryx Biopharmaceuticals, Inc. (Keryx) for the duration of the trial.
Serum phosphorus and calcium were checked at Visit 5 (Week 1), and every two weeks during the first 12 weeks after Visit 4 (Randomization Visit), and monthly for the rest of the Safety Assessment Period. During the Efficacy Assessment Period, serum phosphorus and calcium were drawn weekly. These values guided study drug administration. While on study drug, the use of other phosphate binders was not permitted. […] The titration of calcium acetate and sevelamer carbonate throughout the 52-week Safety Assessment Period were according to the current package inserts for these agents and/or at the discretion of the site PI.
Serum phosphorus and calcium were performed at Screening (Visit 0); weekly during the Washout Period after Visit 1 (Week −2); at Visit 4 (Randomization Visit); at Visits 5 (Week 1), 6 (Week 2), 7 (Week 4), 8 (Week 6), 9 (Week 8), 10 (Week 10), 11 (Week 12), 12 (Week 16), 13 (Week 20), 14 (Week 24), 15 (Week 28), 16 (Week 32), 17 (Week 36), 18 (Week 40), 19 (Week 44), 20 (Week 48), and 21 (Week 52) of the 52-week Safety Assessment Period; and at Visits 22 (Week 53), 23 (Week 54), 24 (Week 55) and 25 (Week 56) of the Efficacy Assessment Period.
The efficacy analyses were based on Full Analysis (FA) population that consisted of all patients who took at least one dose of study medication and provided baseline and at least one post-baseline efficacy assessment. The safety analyses were based on safety population that was consistent of all patients who took at least one dose of study medication.
• 1. Change in serum phosphorus concentration at Weeks 12, 24, 36, 48, and 52 as compared to baseline (Visit 4). This variable will be analyzed using LOCF methodology. ANCOVA will be employed. The model will include treatment (fixed effect), and baseline (covariate).

[1] = Phase 2 trial (Example 2): safety and tolerability; type: in vivo, human
Protocol: The safety population in the study included all randomized patients who took at least one dose of study drug.
Serious adverse events occurred in six KRX-0502 subjects (8%) versus ten placebo subjects (14%). Two deaths were recorded in the study, both from the placebo group.

Substance: iron (+3), x (1, 2, 3-propanetricarboxylic acid, 2-hydroxy-), y (H2O) [KRX-0502]
- Mean Serum Phosphorus (serum phosphorus; Baseline, N = 277): 7.4 mg/dL
- Phosphorus, Median (serum phosphorus; Baseline, Table 12): 7.20 mg/dL
- Phosphorus, Mean (serum phosphorus; Baseline, Table 12, vs sevelamer carbonate as a single agent): 7.39 mg/dL
- Serum Phosphorus, Mean (serum phosphorus; Day 0 Baseline): 7.39
- Serum Phosphorus, Median (serum phosphorus; Day 0 Baseline): 7.20
- Phosphorus, Week 12 Change from Baseline, Mean (serum phosphorus; Table 12): -2.01 mg/dL
- Phosphorus, Week 12 Change from Baseline, Median (serum phosphorus; Table 12): -2.00 mg/dL
- Phosphorus, LS Mean (serum phosphorus; Week 12, ANCOVA, Day-0 baseline covariate, Table 12): 5.38 mg/dL
- Serum Phosphorus, LS Mean (serum phosphorus; Week 12, ANCOVA): 5.39
- Serum Phosphorus, Change from Baseline, Mean (serum phosphorus; Week 12): −2.01
- Serum Phosphorus, Change from Baseline, Median (serum phosphorus; Week 12): −2.00
- Mean Serum Phosphorus (serum phosphorus; Week 12, LOCF): 5.4 mg/dL
- Serum Phosphorus, Mean (serum phosphorus; Week 12): 5.38
- Serum Phosphorus, Median (serum phosphorus; Week 12): 5.10
- Phosphorus, Mean (serum phosphorus; Week 12, Table 12): 5.38 mg/dL
- Phosphorus, Median (serum phosphorus; Week 12, Table 12): 5.10 mg/dL
- Serum Phosphorus, Treatment Differences, LS Mean (KRX-0502) − LS Mean (control) (serum phosphorus; Week 12): 0.07
- Mean Serum Phosphorus, % Change from Baseline (serum phosphorus; Week 12): −27%
- Mean Serum Phosphorus, Change from Baseline (serum phosphorus; Week 12): -2.0 mg/dL
- Phosphorus, Treatment Differences, LS Mean (KRX-0502) − LS Mean (Control) (serum phosphorus; Week 12, control = sevelamer carbonate as a single agent): 0.16 mg/dL
- Serum Phosphorus, LS Mean (serum phosphorus; Week 24, ANCOVA): 5.26
- Serum Phosphorus, Change from Baseline, Mean (serum phosphorus; Week 24): −2.14
- Serum Phosphorus, Change from Baseline, Median (serum phosphorus; Week 24): −2.10
- Mean Serum Phosphorus (serum phosphorus; Week 24, LOCF): 5.2 mg/dL
- Serum Phosphorus, Mean (serum phosphorus; Week 24): 5.24
- Serum Phosphorus, Median (serum phosphorus; Week 24): 5.10
- Serum Phosphorus, Treatment Differences, LS Mean (KRX-0502) − LS Mean (control) (serum phosphorus; Week 24): −0.21
- Mean Serum Phosphorus, % Change from Baseline (serum phosphorus; Week 24): −30%
- Mean Serum Phosphorus, Change from Baseline (serum phosphorus; Week 24): -2.2 mg/dL
- Serum Phosphorus, LS Mean (serum phosphorus; Week 36, ANCOVA): 5.24
- Serum Phosphorus, Change from Baseline, Mean (serum phosphorus; Week 36): −2.16
- Serum Phosphorus, Change from Baseline, Median (serum phosphorus; Week 36): −2.10
- Mean Serum Phosphorus (serum phosphorus; Week 36, LOCF): 5.2 mg/dL
- Serum Phosphorus, Mean (serum phosphorus; Week 36): 5.22
- Serum Phosphorus, Median (serum phosphorus; Week 36): 5.10
- Serum Phosphorus, Treatment Differences, LS Mean (KRX-0502) − LS Mean (control) (serum phosphorus; Week 36): −0.05
- Mean Serum Phosphorus, % Change from Baseline (serum phosphorus; Week 36): −30%
- Mean Serum Phosphorus, Change from Baseline (serum phosphorus; Week 36): -2.2 mg/dL
- Serum Phosphorus, LS Mean (serum phosphorus; Week 48, ANCOVA): 5.33
- Serum Phosphorus, Change from Baseline, Mean (serum phosphorus; Week 48): −2.07
- Serum Phosphorus, Change from Baseline, Median (serum phosphorus; Week 48): −2.10
- Mean Serum Phosphorus (serum phosphorus; Week 48, LOCF): 5.3 mg/dL
- Serum Phosphorus, Mean (serum phosphorus; Week 48): 5.32
- Serum Phosphorus, Median (serum phosphorus; Week 48): 5.20
- Serum Phosphorus, Treatment Differences, LS Mean (KRX-0502) − LS Mean (control) (serum phosphorus; Week 48): −0.12
- Mean Serum Phosphorus, % Change from Baseline (serum phosphorus; Week 48): −28%
- Mean Serum Phosphorus, Change from Baseline (serum phosphorus; Week 48): -2.1 mg/dL
- Serum Phosphorus, LS Mean (serum phosphorus; Week 52, ANCOVA): 5.33
- Serum Phosphorus, Change from Baseline, Mean (serum phosphorus; Week 52): −2.06
- Serum Phosphorus, Change from Baseline, Median (serum phosphorus; Week 52): −2.20
- Mean Serum Phosphorus (serum phosphorus; Week 52, LOCF): 5.3 mg/dL
- Serum Phosphorus, Mean (serum phosphorus; Week 52): 5.32
- Serum Phosphorus, Median (serum phosphorus; Week 52): 5.20
- Serum Phosphorus, Treatment Differences, LS Mean (KRX-0502) − LS Mean (control) (serum phosphorus; Week 52): −0.01
- Mean Serum Phosphorus, % Change from Baseline (serum phosphorus; Week 52): −28%
- Mean Serum Phosphorus, Change from Baseline (serum phosphorus; Week 52): -2.1 mg/dL
- differences in serum calcium levels and liver enzymes (ALT, AST) ([1]; KRX-0502 vs placebo): no clinically meaningful or statistically significant differences
- Serious adverse events, % of subjects ([1]; Phase 2 study): 8%
- Serious adverse events, number of subjects ([1]; Phase 2 study): six
- study discontinuations due to hypophosphatemia ([1]; Phase 2 study): no study discontinuations due to hypophosphatemia
- safety and tolerability ([1]; Phase 2 study, safety population): safe and well-tolerated
- discontinuation rates ([1]; including Treatment Failures): 19%
